Test results from patent US20250388565A1, “ESTROGEN RECEPTOR ALPHA DEGRADERS AND METHODS OF USE THEREOF” (Relay Therapeutics, Inc., priority 2022, published 2025).

molecular target: T1, ERα protein (HiBiT-tagged) in ESR1_HiBiT KI MCF7 cells (Homo sapiens, UniProt P03372); experiment: Nano Glo HiBiT Lytic Degradation Assay; assay type: cell-based; conditions: 6 hours with compound, 14-point dose response 1:3, bell-shape curve fit, half-maximal effect of first Hill model, read-out: MCF7 ESR1 HiBiT - (DC50)
T1 sequence (P03372 1-595): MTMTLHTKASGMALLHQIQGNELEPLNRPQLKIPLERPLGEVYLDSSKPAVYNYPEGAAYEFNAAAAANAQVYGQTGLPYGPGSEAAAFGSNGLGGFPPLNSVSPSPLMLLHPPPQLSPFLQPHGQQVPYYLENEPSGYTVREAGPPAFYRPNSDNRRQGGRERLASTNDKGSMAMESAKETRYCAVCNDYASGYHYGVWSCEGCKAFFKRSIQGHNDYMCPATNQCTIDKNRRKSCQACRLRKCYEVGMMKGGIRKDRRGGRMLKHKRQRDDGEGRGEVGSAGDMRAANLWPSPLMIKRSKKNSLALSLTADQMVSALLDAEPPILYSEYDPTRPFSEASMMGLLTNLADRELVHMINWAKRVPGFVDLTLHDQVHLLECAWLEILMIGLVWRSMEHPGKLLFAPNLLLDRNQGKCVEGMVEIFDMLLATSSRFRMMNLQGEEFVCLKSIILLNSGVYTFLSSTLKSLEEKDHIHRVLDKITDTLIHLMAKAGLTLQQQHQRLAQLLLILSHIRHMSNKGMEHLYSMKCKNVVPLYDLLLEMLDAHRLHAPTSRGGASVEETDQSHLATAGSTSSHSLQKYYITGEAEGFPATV
Outline: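 HiBiT-tagged endogenous ERα remaining in MCF7 knock-in cells was quantified by lytic luminescence after a 6 h treatment. DC50 values derive from a bell-shaped curve, taken at the first Hill component's half-maximal effect.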

DC50 | SMILES
6 nM | O=C1CCC(N2Cc3cc([C@H]4CCN(CC5CCN(c6ccc([C@@H]7c8ccc(O)cc8CC[C@@H]7c7ccccc7)cc6)CC5)CC4(F)F)ccc3C2=O)C(=O)N1 (single isomer, unassigned) [II-92]
0.83 nM | O=C1CC[C@H](N2Cc3cc(N4CC5(CCN(CC6CCN(c7ccc([C@@H]8c9ccc(O)cc9CC[C@@H]8c8ccccc8)cc7)CC6)CC5)C4)ccc3C2=O)C(=O)N1 (single isomer, unassigned) [II-95]
≥ 10000 nM | O=C1CC[C@H](N2Cc3cc(N4CC5(CCN(CC6CCN(c7ccc([C@H]8c9ccc(O)cc9CC[C@H]8c8ccccc8)cc7)CC6)CC5)C4)ccc3C2=O)C(=O)N1 (single isomer, unassigned) [II-96]
2.82 nM | O=C1CCC(N2Cc3cc([C@@H]4CCN(CC5CCN(c6ccc([C@@H]7c8ccc(O)cc8CC[C@@H]7c7ccccc7)cc6)CC5)C[C@H]4O)ccc3C2=O)C(=O)N1 (single isomer, unassigned) [II-106]
3.91 nM | O=C1CCC(N2Cc3cc([C@H]4CCN(CC5CCN(c6ccc([C@@H]7c8ccc(O)cc8CC[C@@H]7c7ccccc7)cc6)CC5)C[C@@H]4O)ccc3C2=O)C(=O)N1 (single isomer, unassigned) [II-107]
0.45 nM | O=C1CCC(N2Cc3cc([C@H]4CCN(CC5CCN(c6ccc([C@@H]7c8ccc(O)cc8CC[C@@H]7c7ccccc7)cc6)CC5)C[C@H]4O)ccc3C2=O)C(=O)N1 (single isomer, unassigned) [II-108]

More lines, now with the values behind:

SMILES | DC50
CC(C)[C@H]1CCc2cc(O)ccc2[C@H]1c1ccc(N2CCC(CN3CCN(c4ccc5c(c4)CN(C4CCC(=O)NC4=O)C5=O)CC3)CC2)cc1 (stereo in doubt) [Compound I-128, (R)-3-(5-(4-((1-(4-((1R,2R)-6-hydroxy-2-isopropyl-1,2,3,4-tetrahydronaphthalen-1-yl)phenyl)piperidin-4-yl)methyl)piperazin-1-yl)-1-oxoisoindolin-2-yl)piperidine-2,6-dione] | 0.1 nM
CC(C)[C@@H]1CCc2cc(O)ccc2[C@@H]1c1ccc(N2CCC(CN3CCN(c4ccc5c(c4)CN(C4CCC(=O)NC4=O)C5=O)CC3)CC2)cc1 (stereo in doubt) [Compound I-129, (R)-3-(5-(4-((1-(4-((1S,2S)-6-hydroxy-2-isopropyl-1,2,3,4-tetrahydronaphthalen-1-yl)phenyl)piperidin-4-yl)methyl)piperazin-1-yl)-1-oxoisoindolin-2-yl)piperidine-2,6-dione] | 5 nM
O=C1CC[C@H](N2Cc3cc(N4CCN(CC5CCN(c6ccc(C7c8ccc(O)cc8CCC7c7ccncc7)cc6)CC5)CC4)ccc3C2=O)C(=O)N1 (stereo in doubt) [Compound I-133, (S)-3-(5-(4-((1-(4-((1R,2S)-6-hydroxy-2-(pyridine-4-yl)-1,2,3,4-tetrahydronaphthalen-1-yl)phenyl)piperidin-4-yl)methyl)piperazin-1-yl)-1-oxoisoindolin-2-yl)piperidine-2,6-dione] | ≥ 10000 nM
O=C1CC[C@H](N2Cc3cc(N4CCN(CC5CCN(c6ccc(C7c8ccc(O)cc8CCC7C7CCCCC7)cn6)CC5)CC4)ccc3C2=O)C(=O)N1 (stereo in doubt) [Compound I-154, (S)-3-(5-(4-((1-(5-((1S,2R)-2-cyclohexyl-6-hydroxy-1,2,3,4-tetrahydronaphthalen-1-yl)pyridin-2-yl)piperidin-4-yl)methyl)piperazin-1-yl)-1-oxoisoindolin-2-yl)piperidine-2,6-dione] | 3300 nM
O=C1CC[C@H](N2Cc3cc(N4CCN(CC5CCN(c6ccc(C7c8ccc(O)cc8CCC7C7CCCCC7)cn6)CC5)CC4)ccc3C2=O)C(=O)N1 (stereo in doubt) [Compound I-155, (S)-3-(5-(4-((1-(5-((1R,2S)-2-cyclohexyl-6-hydroxy-1,2,3,4-tetrahydronaphthalen-1-yl)pyridin-2-yl)piperidin-4-yl)methyl)piperazin-1-yl)-1-oxoisoindolin-2-yl)piperidine-2,6-dione] | 1 nM
O=C1CCC(N2Cc3cc(N4CCN(CC5CCN(c6c(F)cc([C@@H]7c8ccc(O)cc8CC[C@@H]7C7CCCCC7)cc6F)CC5)CC4)ccc3C2=O)C(=O)N1 (stereo in doubt) [Compound I-159, (R)-3-(5-(4-((1-(4-((1R,2R)-2-cyclohexyl-6-hydroxy-1,2,3,4-tetrahydronaphthalen-1-yl)-2,6-difluorophenyl)piperidin-4-yl)methyl)piperazin-1-yl)-1-oxoisoindolin-2-yl)piperidine-2,6-dione] | 10 nM
O=C1CCC(N2Cc3cc(N4CCN(CC5CCN(c6c(F)cc([C@H]7c8ccc(O)cc8CC[C@H]7C7CCCCC7)cc6F)CC5)CC4)ccc3C2=O)C(=O)N1 (stereo in doubt) [Compound I-160, (R)-3-(5-(4-((1-(4-((1S,2S)-2-cyclohexyl-6-hydroxy-1,2,3,4-tetrahydronaphthalen-1-yl)-2,6-difluorophenyl)piperidin-4-yl)methyl)piperazin-1-yl)-1-oxoisoindolin-2-yl)piperidine-2,6-dione] | ≥ 10000 nM
O=C1CCC(c2cccc(N3CCC4C3CCN4CC3CCN(c4ccc([C@@H]5c6ccc(O)cc6CC[C@@H]5c5ccccc5)cc4)CC3)c2)C(=O)N1 (stereo in doubt) [Compound I-178, 3-(3-((3aS,6aS)-4-((1-(4-((1R,2S)-6-hydroxy-2-phenyl-1,2,3,4-tetrahydronaphthalen-1-yl)phenyl)piperidin-4-yl)methyl)hexahydropyrrolo[3,2-b]pyrrol-1 (2H)-yl)phenyl)piperidine-2,6-dione] | 3300 nM
O=C1CCC(c2ccc3c(c2)CN(C2CCN(CC4CCN(c5ccc([C@H]6c7ccc(O)cc7CC[C@H]6c6ccccc6)cc5)CC4)CC2)CC3)C(=O)N1 (stereo in doubt) [Compound I-185, 3-(2-(1-((1-(4-((1S,2R)-6-hydroxy-2-phenyl-1,2,3,4-tetrahydronaphthalen-1-yl)phenyl)piperidin-4-yl)methyl)piperidin-4-yl)-1,2,3,4-tetrahydroisoquinolin-7-yl)piperidine-2,6-dione] | 737 nM
Cc1ccc([C@@H]2CC(F)(F)c3cc(O)ccc3[C@@H]2c2ccc(N3CCC(CN4CCN(c5ccc6c(c5)CN(C5CCC(=O)NC5=O)C6=O)CC4)CC3)cc2)cc1 (stereo in doubt) [Compound I-321, (R)-3-(5-(4-((1-(4-((1S,2R)-4,4-difluoro-6-hydroxy-2-(p-tolyl)-1,2,3,4-tetrahydronaphthalen-1-yl)phenyl)piperidin-4-yl)methyl)piperazin-1-yl)-1-oxoisoindolin-2-yl)piperidine-2,6-dione] | 0.44 nM
O=C1CC[C@H](N2Cc3cc(N4CCN(CC5CCN(c6ccc([C@@H]7c8ccc(O)cc8CO[C@@H]7c7ccccc7)cc6)CC5)CC4)ccc3C2=O)C(=O)N1 [Compound I-3, (S)-3-(5-(4-((1-(4-((3S,4R)-7-hydroxy-3-phenylisochroman-4-yl)phenyl)piperidin-4-yl)methyl)piperazin-1-yl)-1-oxoisoindolin-2-yl)piperidine-2,6-dione] | 0.27 nM
O=C1CC[C@H](N2Cc3cc(N4CCN(CC5CCN(c6ccc([C@H]7c8ccc(O)cc8CO[C@H]7c7ccccc7)cc6)CC5)CC4)ccc3C2=O)C(=O)N1 [Compound I-4, (S)-3-(5-(4-((1-(4-((3R,4S)-7-hydroxy-3-phenylisochroman-4-yl)phenyl)piperidin-4-yl)methyl)piperazin-1-yl)-1-oxoisoindolin-2-yl)piperidine-2,6-dione] | 59.4 nM
O=C1CC[C@H](N2Cc3cc(N4CCN(CC5CCN(c6ccc([C@H]7c8ccc(O)cc8CC[C@H]7C7CCCCC7)cc6)CC5)CC4)ccc3C2=O)C(=O)N1 [Compound I-5, (3S)-3-[5-[4-[[1-[4-[(1S,2S)-2-cyclohexyl-6-hydroxy-tetralin-1-yl]phenyl]-4-piperidyl]methyl]piperazin-1-yl]-1-oxo-isoindolin-2-yl]piperidine-2,6-dione] | ≥ 10000 nM
O=C1CC[C@H](N2Cc3cc(N4CCN(CC5CCN(c6ccc([C@@H]7c8ccc(O)cc8CC[C@@H]7C7CCCCC7)cc6)CC5)CC4)ccc3C2=O)C(=O)N1 [Compound I-6, (3S)-3-[5-[4-[[1-[4-[(1R,2R)-2-cyclohexyl-6-hydroxy-tetralin-1-yl]phenyl]-4-piperidyl]methyl]piperazin-1-yl]-1-oxo-isoindolin-2-yl]piperidine-2,6-dione] | 2.24 nM
O=C1CC[C@H](N2Cc3cc(N4CCN(CC5CCN(c6ccc(C7=C(c8ccccc8)CCc8cc(C(=O)O)ccc87)cc6)CC5)CC4)ccc3C2=O)C(=O)N1 [Compound I-7, (S)-5-(4-(4-((4-(2-(2,6-dioxopiperidin-3-yl)-1-oxoisoindolin-S-yl)piperazin-1-yl)methyl)piperidin-1-yl)phenyl)-6-phenyl-7,8-dihydronaphthalene-2-carboxylic acid] | ≥ 10000 nM
